# Literature values as cited in patent publication US20100179144A1, “QUINAZOLINE DERIVATIVES AS P13 KINASE INHIBITORS” (priority 2007, published 2010).
# Tested on: Class I PI3-kinases
# Conditions: about; Fruman et al. 1998; read-out: IC50 against each of these PI3-kinases
structure (smiles),measurement,value
O=c1cc(N2CCOCC2)oc2c(-c3ccccc3)cccc12 [LY294002],IC50,15 to 20 µM
